Data: US7704995B2 (Exelixis, Inc., priority 2003, dated 2010)
Where two headings read alike, the source gives them in different places.

Molecular target: T1, Chk1 (Homo sapiens, UniProt O14757)
T1 construct: purchased Upstate Biotechnology
T1 sequence (O14757 1-476): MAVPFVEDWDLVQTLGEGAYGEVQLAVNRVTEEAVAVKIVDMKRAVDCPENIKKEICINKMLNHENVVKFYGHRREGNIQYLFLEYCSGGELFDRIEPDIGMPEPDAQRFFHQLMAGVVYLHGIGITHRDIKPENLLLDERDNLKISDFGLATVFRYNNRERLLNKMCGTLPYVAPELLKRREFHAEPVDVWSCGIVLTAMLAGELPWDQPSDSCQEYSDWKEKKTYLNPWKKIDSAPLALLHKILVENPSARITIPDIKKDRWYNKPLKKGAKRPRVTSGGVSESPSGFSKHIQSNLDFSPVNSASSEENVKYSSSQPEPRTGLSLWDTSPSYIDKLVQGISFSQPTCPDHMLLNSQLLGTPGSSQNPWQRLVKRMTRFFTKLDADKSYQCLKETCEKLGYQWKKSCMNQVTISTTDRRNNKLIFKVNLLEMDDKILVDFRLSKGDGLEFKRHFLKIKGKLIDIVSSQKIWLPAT
Test: Chk1 kinase assay: incorporation of γ-33P ATP into immobilized myelin basic protein
Type: biochemical
Details: read-out: Chk1 IC50
Summary of the method: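 Enzyme activity is measured as γ-33P transfer from ATP onto immobilized MBP over 1 h at room temperature, with Chk1 at 10 nM/10 μM unlabeled ATP and Chk2 at 20 nM/30 μM unlabeled ATP. Compounds are tested in 1% DMSO.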

Row | Compound | IC50 [nM] | IC50 (Table 11, Chk1 only) [nM]
1 | CNC(=O)c1nc(-c2cccc(C(=O)NCc3ccc(F)cc3C(F)(F)F)c2)cnc1N [Example 405, 3-amino-6-{3-[({[4-fluoro-2-(trifluoromethyl)phenyl]methyl}amino)carbonyl]phenyl}-N-methylpyrazine-2-carboxamide] | 50 to 1000 | –
2 | CNC(=O)c1nc(-c2cccc(C(=O)NCc3ccc(C(F)(F)F)nc3)c2)cnc1N [Example 406, 3-amino-N-methyl-6-{3-[({[6-(trifluoromethyl)pyridin-3-yl]methyl}amino)carbonyl]phenyl}pyrazine-2-carboxamide] | 50 to 1000 | –
3 | CNC(=O)c1nc(-c2cccc(-c3nc4ccccc4[nH]3)c2)cnc1N [Example 407, 3-amino-6-[3-(1H-benzimidazol-2-yl)phenyl]-N-methylpyrazine-2-carboxamide] | 50 to 1000 | –
4 | CNC(=O)c1nc(-c2cccc(CNCc3cc(Cl)ccc3Cl)c2)cnc1N [Example 408, 3-amino-6-[3-({[(2,5-dichlorophenyl)methyl]amino}methyl)phenyl]-N-methylpyrazine-2-carboxamide] | 50 to 1000 | –
5 | CNC(=O)c1nc(-c2cccc(CNCc3cc(Cl)cc(Cl)c3)c2)cnc1N [Example 409, 3-amino-6-[3-({[(3,5-dichlorophenyl)methyl]amino}methyl)phenyl]-N-methylpyrazine-2-carboxamide] | < 50 | –
6 | CNC(=O)c1nc(-c2cccc(NCCc3ccccc3)c2)cnc1N [Example 410, 3-amino-N-methyl-6-{3-[(2-phenylethyl)amino]phenyl}pyrazine-2-carboxamide] | 50 to 1000 | –
7 | CNC(=O)c1nc(-c2cncc(C(=O)NCc3ccc4c(c3)OCCO4)c2)cnc1N [Example 411, 3-amino-6-(5-{[(2,3-dihydro-1,4-benzodioxin-6-ylmethyl)amino]carbonyl}pyridin-3-yl)-N-methylpyrazine-2-carboxamide] | 50 to 1000 | –
8 | CNC(=O)c1nc(-c2cccc(C(=O)NCCNc3ccccc3)c2)cnc1N [Example 412, 3-amino-N-methyl-6-[3-({[2-(phenylamino)ethyl]amino}carbonyl)phenyl]pyrazine-2-carboxamide] | 50 to 1000 | –
9 | CCc1ccc(CNC(=O)c2cccc(-c3cnc(N)c(C(=O)NC)n3)c2)cc1 [Example 413, 3-amino-6-[3-({[(4-ethylphenyl)methyl]amino}carbonyl)phenyl]-N-methylpyrazine-2-carboxamide] | 50 to 1000 | –
10 | CNC(=O)c1nc(-c2cccc(C(=O)NCc3ccc(-c4cccnc4)cc3)c2)cnc1N [Example 414, 3-amino-N-methyl-6-[3-({[(4-pyridin-3-ylphenyl)methyl]amino}carbonyl)phenyl]pyrazine-2-carboxamide] | 50 to 1000 | –
11 | CNC(=O)c1nc(-c2cccc(CNC3Cc4ccccc4C3)c2)cnc1N [Example 415, 3-amino-6-{3-[(2,3-dihydro-1H-inden-2-ylamino)methyl]phenyl}-N-methylpyrazine-2-carboxamide] | < 50 | –
12 | CNC(=O)c1nc(-c2cccc(CN3Cc4ccccc4C3)c2)cnc1N [Example 416, 3-amino-6-[3-(1,3-dihydro-2H-isoindol-2-ylmethyl)phenyl]-N-methylpyrazine-2-carboxamide] | 50 to 1000 | –
13 | CNC(=O)c1nc(-c2cccc(CN[C@@H]3CCc4ccccc43)c2)cnc1N [Example 417, 3-amino-6-(3-{[(1R)-2,3-dihydro-1H-inden-1-ylamino]methyl}phenyl)-N-methylpyrazine-2-carboxamide] | 50 to 1000 | –
14 | CNC(=O)c1nc(-c2cccc(CN[C@H]3CCc4ccccc43)c2)cnc1N [Example 418, 3-amino-6-(3-{[(1S)-2,3-dihydro-1H-inden-1-ylamino]methyl}phenyl)-N-methylpyrazine-2-carboxamide] | < 50 | –
15 | CNC(=O)c1nc(-c2cccc(CNCc3cc(F)c(F)c(F)c3)c2)cnc1N [Example 419, 3-amino-N-methyl-6-[3-({[(3,4,5-trifluorophenyl)methyl]amino}methyl)phenyl]pyrazine-2-carboxamide] | < 50 | –
16 | CNC(=O)c1nc(-c2cccc(CN[C@H](C)c3ccccc3)c2)cnc1N [Example 420, 3-amino-N-methyl-6-[3-({[(1R)-1-phenylethyl]amino}methyl)phenyl]pyrazine-2-carboxamide] | 50 to 1000 | –
17 | CNC(=O)c1nc(-c2cccc(CN[C@@H]3c4ccccc4C[C@@H]3O)c2)cnc1N [Example 421, 3-amino-6-[3-({[(1R,2S)-2-hydroxy-2,3-dihydro-1H-inden-1-yl]amino}methyl)phenyl]-N-methylpyrazine-2-carboxamide] | < 50 | –

Row | Compound | IC50 [nM] | IC50 (Table 11, Chk1 only) [nM]
18 | CNC(=O)c1nc(-c2cccc(CNCc3ccc(-c4cccs4)cc3)c2)cnc1N [Example 422, 3-amino-N-methyl-6-{3-[({[4-(2-thienyl)phenyl]methyl}amino)methyl]phenyl}pyrazine-2-carboxamide] | < 50 | –
19 | CNC(=O)c1nc(-c2cccc(CNCc3cccc(-c4csnn4)c3)c2)cnc1N [Example 423, 3-amino-N-methyl-6-{3-[({[3-(1,2,3-thiadiazol-4-yl)phenyl]methyl}amino)methyl]phenyl}pyrazine-2-carboxamide] | 50 to 1000 | –
20 | CCCc1ccc(CNC(=O)c2cccc(-c3cnc(N)c(C(=O)NC)n3)c2)cc1 [Example 424, 3-amino-N-methyl-6-[3-({[(4-propylphenyl)methyl]amino}carbonyl)phenyl]pyrazine-2-carboxamide] | 50 to 1000 | –
21 | CNC(=O)c1nc(-c2cccc(CNCc3ccc(Cl)cc3F)c2)cnc1N [Example 425, 3-amino-6-[3-({[(4-chloro-2-fluorophenyl)methyl]amino}methyl)phenyl]-N-methylpyrazine-2-carboxamide] | 50 to 1000 | –
22 | CNC(=O)c1nc(-c2cccc(CNCc3cccc(C(F)(F)F)c3)c2)cnc1N [Example 426, 3-amino-N-methyl-6-{3-[({[3-(trifluoromethyl)phenyl]methyl}amino)methyl]phenyl}pyrazine-2-carboxamide] | 50 to 1000 | –
23 | CNC(=O)c1nc(-c2cccc(CN[C@@H](C)c3ccccc3)c2)cnc1N [Example 427, 3-amino-N-methyl-6-[3-({[(1S)-1-phenylethyl]amino}methyl)phenyl]pyrazine-2-carboxamide] | – | 50 to 1000
24 | CNC(=O)c1nc(-c2cccc(CN[C@@H](CO)c3ccccc3)c2)cnc1N [Example 428, 3-amino-6-[3-({[(1R)-2-hydroxy-1-phenylethyl]amino}methyl)phenyl]-N-methylpyrazine-2-carboxamide] | – | 50 to 1000
25 | CNC(=O)c1nc(-c2cccc(CN[C@H](C(=O)OC)c3ccccc3)c2)cnc1N [Example 429, methyl (2S)-{[(3-{5-amino-6-[(methylamino)carbonyl]pyrazin-2-yl}phenyl)methyl]amino}(phenyl)ethanoate] | – | 1000 to 10000
26 | CNC(=O)c1nc(-c2cccc(C(=O)NNc3cc(F)ccc3F)c2)cnc1N [Example 430, 3-amino-6-(3-{[2-(2,5-difluorophenyl)hydrazino]carbonyl}phenyl)-N-methylpyrazine-2-carboxamide] | – | 50 to 1000
27 | CNC(=O)c1nc(-c2cccc(C(=O)NNc3c(F)c(F)c(C)c(F)c3F)c2)cnc1N [Example 431, 3-amino-N-methyl-6-(3-{[2-(2,3,5,6-tetrafluoro-4-methylphenyl)hydrazino]carbonyl}phenyl)pyrazine-2-carboxamide] | – | 50 to 1000
28 | CNC(=O)c1nc(-c2cccc(C(=O)NNc3ccccc3F)c2)cnc1N [Example 432, 3-amino-6-(3-{[2-(2-fluorophenyl)hydrazino]carbonyl}phenyl)-N-methylpyrazine-2-carboxamide] | – | 50 to 1000
29 | CNC(=O)c1nc(-c2cccc(C(=O)NNc3ccc(F)cc3F)c2)cnc1N [Example 433, 3-amino-6-(3-{[2-(2,4-difluorophenyl)hydrazino]carbonyl}phenyl)-N-methylpyrazine-2-carboxamide] | – | 50 to 1000
30 | CNC(=O)c1nc(-c2cccc(C(=O)NNc3c(F)c(F)cc(F)c3F)c2)cnc1N [Example 434, 3-amino-N-methyl-6-(3-{[2-(2,3,5,6-tetrafluorophenyl)hydrazino]carbonyl}phenyl)pyrazine-2-carboxamide] | – | 50 to 1000
31 | CNC(=O)c1nc(-c2cccc(CNCc3cnc(C)cn3)c2)cnc1N [Example 435, 3-amino-N-methyl-6-[3-({[(5-methylpyrazin-2-yl)methyl]amino}methyl)phenyl]pyrazine-2-carboxamide] | – | 50 to 1000
32 | CNC(=O)c1nc(-c2cccc(CN[C@H]3CCCc4ccccc43)c2)cnc1N [Example 436, 3-amino-N-methyl-6-(3-{[(1S)-1,2,3,4-tetrahydronaphthalen-1-ylamino]methyl}phenyl)pyrazine-2-carboxamide] | – | < 50
33 | CNC(=O)c1nc(-c2cccc(CN[C@H]3CCN(Cc4ccccc4)C3)c2)cnc1N [Example 437, 3-amino-N-methyl-6-[3-({[(3S)-1-(phenylmethyl)pyrrolidin-3-yl]amino}methyl)phenyl]pyrazine-2-carboxamide] | – | 50 to 1000
34 | CNC(=O)c1nc(-c2cccc(CN[C@@H]3CCN(Cc4ccccc4)C3)c2)cnc1N [Example 438, 3-amino-N-methyl-6-[3-({[(3R)-1-(phenylmethyl)pyrrolidin-3-yl]amino}methyl)phenyl]pyrazine-2-carboxamide] | – | 50 to 1000
